Laboratory results taken from the SangsterLogP compilation.

Columns and labels:
[1] = method code SF-RC,AS, from DOI: 10.1021/es60170a013; settings: pH 8.7
[2] = method code G-GLC, from DOI: 10.1021/es00169a004
[3] = method code SF, from DOI: 10.1016/s0968-0896(00)00025-0, PMID: 10882003
[4] = method code SF, from DOI: 10.1016/0378-5173(87)90234-1; settings: pH 4.0
[5] = not given; remark: listed apart in the source
[6] = method code SF-AS, from DOI: 10.1007/s001280000002, PMID: 10757653
[7] = method code SF-HPLC, from DOI: 10.1016/0006-2952(84)90322-8, PMID: 6704182
[8] = method code SF-AS, from DOI: 10.1016/0223-5234(96)88239-0; settings: pH 2.0
[9] = method code SF-AS, from PMID: 301777
[10] = method code SF-RC, from DOI: 10.1248/cpb.39.104, PMID: 2049793; settings: pH 7.4
[11] = method code SF-AS, from DOI: 10.1002/jps.2600620542, PMID: 4705706
[12] = method code SF-GLC, from DOI: 10.1021/es00171a006
[13] = method code SF-RC, from PMID: 3382460; settings: pH 7.0
[14] = not given; remark: listed apart in the source
[15] = method code SF-HPLC, from DOI: 10.1016/s0928-0987(98)00030-x, PMID: 9845810; settings: pH 7.4
[16] = method code SF-GLC, from DOI: 10.1016/0045-6535(95)00311-u
[17] = method code SF-RC, from DOI: 10.1023/a:1015825912542, PMID: 1808606; settings: pH 7.2
[18] = method code SF-AS, from DOI: 10.1021/jm00162a004, PMID: 3023612
[19] = method code SF, from DOI: 10.1055/s-0038-1624171, PMID: 6548017; settings: pH 7.4
[20] = method code SF-AS, from DOI: 10.1007/s00044-012-0399-x
[21] = method code SF-GLC, from DOI: 10.1016/s0021-9673(00)81319-9
[22] = method code SF, from Ganellin, C. R., & Durant, G. J. (1981). Histamine H2-receptor agonists and antagonists. Burgers Medicinal Chemistry, 3, 487-552.; settings: pH 9.2
[23] = not given; remark: listed apart in the source
[24] = not given; remark: listed apart in the source

Which logD [1] does the source give for `Nc1ccc(-c2ccc(N)c(Cl)c2)cc1Cl` here?
Its logD is 3.51.

For `Clc1cc(Cl)c(-c2c(Cl)c(Cl)c(Cl)c(Cl)c2Cl)c(Cl)c1Cl`, which logP [2] is on record?
The logP was 7.52.

Which logP [3] does the source give for `Cc1[nH]c(=O)c(C#N)cc1-c1ccncc1` here?
The logP was 0.42.

For `CCCCCCCCn1sc(Cl)c(Cl)c1=O`, which logP is on record?
The logP was 4.9.

With `O=C(c1ccccc1)n1c(=O)[nH]cc(F)c1=O` as the compound, how does the logD [4] read?
The logD was 0.8.

With `O=S(c1cc(Cl)cc(Cl)c1O)c1cc(Cl)cc(Cl)c1O` as the compound, how does the logP [5] read?
Its logP is 4.13.

With `CCOC(=O)c1cccc(C(=O)OCC)n1` as the compound, how does the logP [6] read?
Its logP is 3.

Which logP [7] does the source give for `CC(=O)Nc1ccn([C@@H]2O[C@H](CO)[C@@H](O)[C@@H]2O)c(=O)n1` here?
The logP was -1.35.

With `Cn1c(C(=O)O)cnc1C(=O)c1ccc([N+](=O)[O-])cc1` as the compound, how does the logD [8] read?
The logD was 2.14.

For `CCc1nc(N)nc(N)c1-c1ccc(Cl)c(Cl)c1`, which logP [9] is on record?
The logP was 3.19.

With `CNC(=S)NN=C(C)C(C)(C)C(C)=NNC(=S)NC` as the compound, how does the logD [10] read?
The logD was 2.51.

Which logP [11] does the source give for `O=C(c1ccncc1)c1ccc(Cl)cc1` here?
Its logP is 2.61.

For `Clc1cc(Cl)c2c(c1Cl)Oc1ccccc1O2`, which logP [12] is on record?
Its logP is 5.57.

For `CNC(=O)OC1OC(=O)C2C3C=CC(C3)C12` (stereo not given), which logD [13] is on record?
The logD was 0.63.

For `C1COC(NC(C2CC2)C2CC2)=N1`, which logP [14] is on record?
Its logP is 1.63.

For `Cc1ccc2c(c1)C(=O)N(CCO[N+](=O)[O-])CO2`, which logD [15] is on record?
Its logD is 2.41.

With `CCCCCCCCCC(Cl)(Cl)Cl` as the compound, how does the logP [16] read?
Its logP is 5.85.

With `CC(=O)NC(Cc1ccccc1)C(N)=O` (stereo not given) as the compound, how does the logD [17] read?
Its logD is 0.05.

For `CCCC1(CCC)CCC=[N+]1[O-]`, which logP [18] is on record?
Its logP is 0.69.

For `O=[N+]([O-])c1nccn1CCOc1ccc(I)cc1`, which logD [19] is on record?
Its logD is 2.84.

Which logP [20] does the source give for `COC(=O)CN1Cc2ccccc2C1` here?
The logP was -0.03.

Which logP [21] does the source give for `Clc1cccc(-c2ccccc2)c1` here?
Its logP is 4.71.

With `CNC(=S)NCCCCc1nc[nH]c1C` as the compound, how does the logD [22] read?
The logD was 0.85.

For `CCC(C)C1(CC)C(=O)NC(=O)NC1=O` (stereo not given), which logP [23] is on record?
Its logP is 1.58.

Which logP [24] does the source give for `OC1(c2ccc(Cl)cc2)CCNCC1` here?
Its logP is 1.98.
